Test system: previously untreated advanced renal cell carcinoma
Assay: IMmotion151 (NCT02420821) Phase 3 randomized trial, atezolizumab plus bevacizumab versus sunitinib, clinical outcomes by biomarker subgroup
Assay type: in vivo, human
Text: IMmotion151 (NCT02420821) was a multicenter, open-label, Phase 3, randomized controlled trial of atezolizumab plus bevacizumab (n=454) versus sunitinib (n=461) in patients with previously untreated advanced RCC (Rini et al. Lancet. 393: 2404-2415 (2019)). The study design, methods, and primary clinical findings from IMmotion151 have been reported previously (Rini et al. Lancet. 393: 2404-2415 (2019)).
Briefly, previously untreated patients with unresectable locally advanced or metastatic renal cell carcinoma with any component of clear-cell or sarcomatoid histology were randomized to receive atezolizumab 1200 mg+bevacizumab 15 mg/kg (atezolizumab+bevacizumab) once every 3 weeks (n=454) or sunitinib 50 mg once daily (n=461; 4 weeks on, 2 weeks off). The co-primary endpoints were investigator-assessed progression-free survival (PFS) in patients with ≥1% expressing PD-L1 on immune cells (IC, PD-L1^+) and overall survival (OS) in the intent-to-treat (ITT) population.
IMmotion151 (NCT02420821) was a multicenter, open-label, Phase 3, randomized controlled trial of atezolizumab plus bevacizumab (n=454) vs. sunitinib (n=461) in patients with previously untreated advanced renal cell carcinoma (Rini et al. Lancet. 393: 2404-2415 (2019)).
RNA-seq data from the randomized Phase II trial IMmotion150 were processed as described above. Transcriptional signature scores were derived from T-effector and angiogenesis signatures (McDermott et al. Nat Med. 24: 749-757 (2018)) for each sample, and hazard ratios were calculated at various gene expression scores. Gene expression score cutoffs of 2.93 (40% prevalence) and 5.82 (50% prevalence) were defined for the T-effector and angiogenesis signatures in IMmotion150 based on a combination of prevalence and hazard ratio plateauing. These absolute thresholds were prospectively applied to the IMmotion151 data to classify tumors with high and low T-effector and angiogenesis signatures. Cox-proportional hazard regression models were fit to compare PFS in atezolizumab+bevacizumab or sunitinib-treated patients in gene expression high and low subsets.
All analyses were conducted using Rv3.6.1. Unless otherwise stated, all comparisons for continuous variables use the two-sided Mann-Whitney test (R function wilcox.test) for two groups and the Kruskal-Wallis test (R function kruskal.test) for more than two groups. Dunn's post-hoc test was applied with Benjamini-Hochberg multiple testing correction for pairwise comparisons. For categorical variables, Pearson's Chi-squared test with continuity correction was used (R function chisq.test). Unless otherwise stated, false discovery rate (FDR)-adjusted p-values are reported. *: p<0.05; **: p<0.01; ***: p<0.001. Survival analyses were conducted using Cox-proportional hazard models using the R survival package (v 3.1.7). Log-rank p-values were reported for survival analyses including more than two groups. For all boxplots, the horizontal line represents the median. The lower and upper hinges correspond to the first and third quartiles. The upper whisker extends from the hinge to the largest value no further than 1.5*IQR from the hinge (where IQR is the inter-quartile range, or distance between the first and third quartiles). The lower whisker extends from the hinge to the smallest value at most 1.5*IQR of the hinge.

[1] = tumors with CDKN2A/B alterations

## CCN(CC)CCNC(=O)c1c(C)[nH]c(/C=C2\C(=O)Nc3ccc(F)cc32)c1C [sunitinib]
PBRM1 non-mutant tumors
  ORR: 27%
  mPFS: 6.9 months
Proliferative cluster (#5)
  ORR: 3.1%
Stromal/Proliferative cluster (printed #5)
  mPFS: 5.2 months
T-effector/Proliferative cluster (#4)
  objective response rate (ORR): 19.4%
loss-of-function mutations in ARID1A
  mPFS: 6.8 months
loss-of-function mutations in KMT2C
  mPFS: 7.0 months
sRCC (sarcomatoid RCC) patients, RECIST 1.1
  Objective response rate: 14%
Tumors harboring PBRM1 mutations
  mPFS: 11.2 months
[1]
  ORR: 20%
  complete responses: 0%
  mPFS: 4.1 months
Within sunitinib treatment arm, 95% CI 0.47, 0.75
  PFS hazard ratio, Angiogenesis signature high vs low: 0.59
Within sunitinib-treated patients, 95% CI 0.51, 0.87
  PFS hazard ratio, PBRM1 mutant vs non-mutant tumors: 0.67
